Source: patent US20260022143A1, “Cyclic Peptide Inhibitors of IL-23” (JANSSEN PHARMACEUTICA NV, priority 2022, published 2026)
Starred links: 1 amine or outer side, 2 acyl side, 3 side chain; linkers in the order of their positions; H or OH if unused. Positions of bridges follow the written chain, without caps; N, C: chain ends. Non-standard residues stand in square brackets, D forms with d. Residues, ends and D or L forms follow the SMILES beside them. *: point of attachment. Trp(7-(3-AcNH-Ph)) = CC(=O)Nc1cccc(-c2cccc3c(C[C@H](N)C(=O)O)c[nH]c23)c1; X33 = C[N+](C)(C)CCCCc1cn(-c2ccc(C[C@H](N[*:1])C(=O)[*:2])cc2)nn1; X16 = C[N+](C)(C)Cc1cn(-c2ccc(C[C@H](N[*:1])C(=O)[*:2])cc2)nn1; Me3N+(CH2)2O(CH2)2O(CH2)2CO = C[N+](C)(C)CCOCCOCCC(=O)*; Trp(7-Me) = Cc1cccc2c(C[C@H](N)C(=O)O)c[nH]c12; 2Nal = N[C@@H](Cc1ccc2ccccc2c1)C(=O)O; AEF = NCCOc1ccc(C[C@H](N)C(=O)O)cc1; 3Pal = N[C@@H](Cc1cccnc1)C(=O)O; Lys(Me) = CNCCCC[C@H](N)C(=O)O; X7 = COCCOCCOCCOCCOCCOCCC(=O)*; Pen = CC(C)(S)[C@H](N)C(=O)O; Thp = NC1(C(=O)O)CCOCC1; X17 = C[N+]1(CC*)CCOCC1; Sar = CNCC(=O)O

Columns and labels:
IL-23R = target: T1, IL-23R (Homo sapiens, UniProt Q5VWK5); assay: IL23R Reporter Assay; type: cell-based; conditions: HEK293 cells containing IL-23R, IL-12RP1 and STAT-inducible firefly luciferase reporter; 10 ng/mL IL-23 (EC90); 5 h at 37° C.; read-out: IL23R Reporter Assay
T1 construct: host or cells: HEK293
T1 sequence (Q5VWK5 24-629): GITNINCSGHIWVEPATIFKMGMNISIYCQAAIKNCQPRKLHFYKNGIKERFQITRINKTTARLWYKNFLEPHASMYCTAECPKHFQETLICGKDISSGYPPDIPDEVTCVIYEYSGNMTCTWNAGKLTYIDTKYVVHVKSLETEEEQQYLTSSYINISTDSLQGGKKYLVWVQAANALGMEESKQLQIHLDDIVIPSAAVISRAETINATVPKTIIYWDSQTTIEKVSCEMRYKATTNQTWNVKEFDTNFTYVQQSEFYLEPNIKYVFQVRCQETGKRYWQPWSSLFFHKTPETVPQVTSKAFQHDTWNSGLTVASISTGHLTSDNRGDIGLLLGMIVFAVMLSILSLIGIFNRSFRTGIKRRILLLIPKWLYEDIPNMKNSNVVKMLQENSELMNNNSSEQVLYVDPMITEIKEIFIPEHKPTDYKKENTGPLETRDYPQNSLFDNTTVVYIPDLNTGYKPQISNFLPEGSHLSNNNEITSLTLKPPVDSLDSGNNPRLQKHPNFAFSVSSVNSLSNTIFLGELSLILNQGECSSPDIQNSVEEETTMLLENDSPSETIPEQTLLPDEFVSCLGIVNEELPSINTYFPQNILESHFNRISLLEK

[1] = Exposed Polar Surface Area (EPSA); type: physicochemical; conditions: SFC on Chirex 3014 column; sample 1 mM DMSO stock; read-out: EPSA
Procedure, shortened: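 SFC retention on a Chirex 3014 (S)-valine/(R)-1-(α-naphthyl)ethylamine column, 35 °C, CO2 with MeOH (20 mM ammonium formate) gradient 5–60% at 20%/min, 14 MPa outlet. Retention times converted to EPSA (Å^2) via linear calibration with 8 standards; samples from 1 mM DMSO stock, run in duplicate.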

Row | IC50 (IL-23R) | EPSA [1] | SMILES
1 | 1.2 nM | 168 A^2 | CC(=O)Nc1cccc(-c2cccc3c(C[C@@H]4NC(=O)[C@H]([C@@H](C)O)NC(=O)[C@H](CC(=O)N(C)C)NC(=O)[C@@H](NC(=O)CCOCCOCC[N+](C)(C)C)C(C)(C)SSC(C)(C)[C@@H](C(=O)N[C@@H](Cc5ccc(OCC[N+]6(C)CCOCC6)cc5)C(=O)N[C@@H](Cc5ccc6ccccc6c5)C(=O)NC5(C(=O)N[C@@H](CCCCN(C)C(C)=O)C(=O)N[C@@H](CC(N)=O)C(=O)N[C@@H](Cc6cccnc6)C(=O)N(C)CC(=O)N(C)C)CCOCC5)NC(=O)[C@H](CCCCN(C)C(C)=O)NC4=O)c[nH]c23)c1 [compound 421, cPEG3aCO-Pen(3)-N(N(me)2)-T-7(3NAcPh)W-K(NMeac)-Pen(3)-MMoEF-2Nal-THP-K(NMeAc)-N-3Pya-Sar-CON(Me)2] ({Me3N+(CH2)2O(CH2)2O(CH2)2CO}-[Pen]D(NMe2)T[Trp(7-(3-AcNH-Ph))][Lys(Me)](Ac)[Pen]Y(X17)[2Nal][Thp][Lys(Me)](Ac)N[3Pal][Sar]-NMe2; disulfide 1-6 (inferred))
2 | 1.8 nM | 192 A^2 | COCCOCCOCCOCCOCCOCCC(=O)N[C@H](CCCNC(=N)N)C(=O)N[C@@H]1C(=O)N[C@@H](CC(N)=O)C(=O)N[C@@H]([C@@H](C)O)C(=O)N[C@@H](Cc2c[nH]c3c(-c4cccc(NC(C)=O)c4)cccc23)C(=O)N[C@@H](CCCCNC(C)=O)C(=O)N[C@H](C(=O)N[C@@H](Cc2ccc(OCCN)cc2)C(=O)N[C@@H](Cc2ccc3ccccc3c2)C(=O)NC2(C(=O)N[C@@H](CCC(=O)O)C(=O)N[C@@H](CC(N)=O)C(=O)N[C@@H](Cc3cccnc3)C(=O)N(C)CC(N)=O)CCOCC2)C(C)(C)SSC1(C)C [compound 422] (X7-[dR][Pen]NT[Trp(7-(3-AcNH-Ph))]K(Ac)[Pen][AEF][2Nal][Thp]EN[3Pal][Sar]-NH2; disulfide 2-7 (inferred))
3 | 2.6 nM | 165 A^2 | CC(=O)NCCCC[C@@H]1NC(=O)[C@H](Cc2c[nH]c3c(C)cccc23)NC(=O)[C@H]([C@@H](C)O)NC(=O)[C@H](CC(N)=O)NC(=O)[C@@H](NC(=O)CCOCCOCC[N+](C)(C)C)C(C)(C)SSC(C)(C)[C@@H](C(=O)N[C@@H](Cc2ccc(-n3cc(CCCC[N+](C)(C)C)nn3)cc2)C(=O)N[C@@H](Cc2ccc3ccccc3c2)C(=O)NC2(C(=O)N[C@@H](CCCCNC(C)=O)C(=O)N[C@@H](CC(N)=O)C(=O)N[C@@H](Cc3cccnc3)C(=O)N(C)CC(N)=O)CCOCC2)NC1=O [compound 424, cPEG3aCO-Pen(3)-N-T-7MeW-K(Ac)-Pen(3)-F(4TzlTMA4)-2Nal-THP-K(Ac)-N-3Pya-Sar-CONH2] ({Me3N+(CH2)2O(CH2)2O(CH2)2CO}-[Pen]NT[Trp(7-Me)]K(Ac)[Pen][X33][2Nal][Thp]K(Ac)N[3Pal][Sar]-NH2; disulfide 1-6)
4 | 1.6 nM | 163 A^2 | CC(=O)NCCCC[C@@H]1NC(=O)[C@H](Cc2c[nH]c3c(C)cccc23)NC(=O)[C@H]([C@@H](C)O)NC(=O)[C@H](CC(N)=O)NC(=O)[C@@H](NC(C)=O)C(C)(C)SSC(C)(C)[C@@H](C(=O)N[C@@H](Cc2ccc(-n3cc(C[N+](C)(C)C)nn3)cc2)C(=O)N[C@@H](Cc2ccc3ccccc3c2)C(=O)NC2(C(=O)N[C@@H](CCCCNC(C)=O)C(=O)N[C@@H](CC(N)=O)C(=O)N[C@@H](Cc3cccnc3)C(=O)N(C)CC(N)=O)CCOCC2)NC1=O [compound 426] (Ac-[Pen]NT[Trp(7-Me)]K(Ac)[Pen][X16][2Nal][Thp]K(Ac)N[3Pal][Sar]-NH2; disulfide 1-6 (inferred))
